Assays:
[1] = test system: aOBBs (anisotropic organ building blocks of hiPSC-CMs and hNDFs); assay: aOBB contraction (force generation on micro-pillars) with ROCK inhibitor and after washing; type: cell-based, human; details: FIG. 8E, n=10 aOBBs from 1 passage
Text: FIGS. 8A-8G depict scalable generation of cellularly aligned, anisotropic organ building blocks (OBBs). […] Scale bars, top: 200 μm, bottom: 20 μm. (FIG. 8B) Fourier analysis used to quantify the high degree of sarcomere alignment. (FIG. 8C) Without capped ends, aOBBs slide off micro-pillars overtime. (FIG. 8D) aOBB force generation on Day 3. n=5 separate passages. […] Scale bars, 1000 μm. FIGS. 14A-14C depict contractile force measurements for aligned cardiac tissues. Force measurements are quantified using Euler-Bernoulli beam theory. Image and schematic representations of (FIG. 14A) micro- and (FIG. 14B) macro-pillars were quantified using an Instron. Micro- and macro-pillar dimensions were measured from high resolution images recorded across 20 independent samples. (FIG. 14C) The material and geometric information were combined to numerically estimate cantilever spring constants and translate pillar displacement to force generation. Based upon the total concentration of iPSC-CMs, an appropriate volume of 1× rat tail collagen I (Corning) solution was prepared on ice. An appropriate volume of collagen I is calculated based upon a desired final concentration of 1.25 mg/mL. Then y/100 mL of 250 mM CaCl2, ˜x/40 mL of 1 N NaOH, and y mL of collagen I are added, in order, to the basal DMEM high glucose media. […]

[2] = test system: aOBBs (anisotropic organ building blocks of hiPSC-CMs and hNDFs); assay: aOBB compaction upon harvest from micropillar array after pre-incubation in ROCK inhibitor; type: cell-based, human; details: FIGS. 8F, 8G; pre-incubation of aOBBs (50 uM, 1 hour)
Description: FIGS. 8A-8G depict scalable generation of cellularly aligned, anisotropic organ building blocks (OBBs). […] Scale bars, top: 200 μm, bottom: 20 μm. (FIG. 8B) Fourier analysis used to quantify the high degree of sarcomere alignment. (FIG. 8C) Without capped ends, aOBBs slide off micro-pillars overtime. (FIG. 8D) aOBB force generation on Day 3. n=5 separate passages. […] Scale bars, 1000 μm. In order to prevent aOBB compaction upon removal from pillars, the aOBBs may be pre-incubated in 50 uM rock inhibitor (Y-27632) for a period of time, such as, e.g., 1 hour. Second, 1 mL of 10% gelbrin (w/v) solution is prepared in DMEM/F12 (Gibco). Third, DMEM High Glucose+10% FBS is supplemented with 50 μM […] (Biogems). Fourth, 100 U/mL thrombin solution is prepared in DMEM High Glucose+10% FBS. All ECM and media solutions were held at 37° C. using a hotplate. […] After 1 h, the aOBBs were harvested manually using a P1000 pipette with wide-bore tips. The wide-bore tips were treated with 3% bovine serum albumin (BSA) to prevent adsorption of the aOBBs. aOBBs were collected three wells at a time and transferred into a single 50 mL tube. Upon collection, the aOBBs were allowed to settle under gravity for 5 min. After the supernatant was aspirated, the volume (x mL) of compacted aOBBs was estimated. We subsequently wash compacted aOBBs in 3× volume of gelbrin bioink. […]

C[C@@H](N)[C@H]1CC[C@H](C(=O)Nc2ccncc2)CC1 [Y-27632]
recovery of aOBB contractile function ([1]; after washing out ROCK inhibitor): Full contractile function is recovered after washing
effect on aOBB contraction ([1]; during exposure to ROCK inhibitor): temporarily blunts aOBB contraction
effect on aOBB compaction upon harvest [2]: blunts compaction upon harvest from micropillar array

From patent US20250222168A1, “METHOD OF FORMING AN ALIGNED TISSUE OR TISSUE CONSTRUCT, A TISSUE OR TISSUE CONSTRUCT, AND BIOINK” (PRESIDENT AND FELLOWS OF HARVARD COLLEGE, priority 2022, published 2025)
